{
  "source": "paper PMC8791557",
  "about": "(Environment international, 2021)",
  "key": {"[1]": {"format": "in vivo, human", "conditions": "for k1e / k12 / k21 / ka / α / β: two-compartmental model; for Tmax of metabolite: median"}, "[2]": {"conditions": "human, in vivo; cited from earlier work"}, "[3]": {"conditions": "50 ng [14C]-BaP oral, mean ± SD"}, "[4]": {"conditions": "100 ng [14C]-BaP oral, mean ± SD"}, "[5]": {"conditions": "250 ng [14C]-BaP oral, mean ± SD"}, "[6]": {"conditions": "metabolite in plasma after 25 ng [14C]-BaP oral"}, "[7]": {"conditions": "metabolite in plasma after 50 ng [14C]-BaP oral"}, "[8]": {"conditions": "metabolite in plasma after 100 ng [14C]-BaP oral"}, "[9]": {"conditions": "metabolite in plasma after 250 ng [14C]-BaP oral"}},
  "note": "Read-outs that look alike come from different tables or passages of the source.",
  "data": [
    {"smiles": "c1ccc2c(c1)cc1ccc3cccc4ccc2c1c34", "note": "[[^14C]-BaP, Benzo[a]pyrene]", "values": [
      {"measurement": "k1e", "setting": "[1]; 25 ng [14C]-BaP oral, n = 1", "result": 0.0068, "unit": "NA 1/h"},
      {"measurement": "k12", "setting": "[1]; 25 ng [14C]-BaP oral, n = 1", "result": 0.331, "unit": "NA 1/h"},
      {"measurement": "k21", "setting": "[1]; 25 ng [14C]-BaP oral, n = 1", "result": 0.028, "unit": "NA 1/h"},
      {"measurement": "ka", "setting": "[1]; 25 ng [14C]-BaP oral, n = 1", "result": 592, "unit": "NA 1/h"},
      {"measurement": "α", "setting": "[1]; 25 ng [14C]-BaP oral, n = 1", "result": 0.366, "unit": "NA 1/h"},
      {"measurement": "β", "setting": "[1]; 25 ng [14C]-BaP oral, n = 1", "result": "5.03 × 10^−4 NA 1/h"},
      {"measurement": "k1e", "setting": "[1]; [3]", "result": "0.694 ± 0.412", "unit": "n = 5 1/h"},
      {"measurement": "k12", "setting": "[1]; [3]", "result": "0.83 ± 1.11", "unit": "n = 5 1/h"},
      {"measurement": "k21", "setting": "[1]; [3]", "result": "0.270 ± 0.253", "unit": "n = 5 1/h"},
      {"measurement": "ka", "setting": "[1]; [3]", "result": "1.30 × 10^7 ± 2.90 × 10^7 n = 5 1/h"},
      {"measurement": "α", "setting": "[1]; [3]", "result": "1.69 ± 0.89", "unit": "n = 5 1/h"},
      {"measurement": "β", "setting": "[1]; [3]", "result": "0.105 ± 0.164", "unit": "n = 5 1/h"},
      {"measurement": "k1e", "setting": "[1]; [4]", "result": "0.558 ± 0.897", "unit": "n = 6 1/h"},
      {"measurement": "k12", "setting": "[1]; [4]", "result": "2.60 ± 3.45", "unit": "n = 6 1/h"},
      {"measurement": "k21", "setting": "[1]; [4]", "result": "0.190 ± 0.180", "unit": "n = 6 1/h"},
      {"measurement": "ka", "setting": "[1]; [4]", "result": "3.52 ± 4.75", "unit": "n = 6 1/h"},
      {"measurement": "α", "setting": "[1]; [4]", "result": "3.33 ± 4.28", "unit": "n = 6 1/h"},
      {"measurement": "β", "setting": "[1]; [4]", "result": "0.020 ± 0.021", "unit": "n = 6 1/h"},
      {"measurement": "k1e", "setting": "[1]; [5]", "result": "1.25 ± 1.71", "unit": "n = 7 1/h"},
      {"measurement": "k12", "setting": "[1]; [5]", "result": "4.27 ± 6.92", "unit": "n = 7 1/h"},
      {"measurement": "k21", "setting": "[1]; [5]", "result": "0.290 ± 0.564", "unit": "n = 7 1/h"},
      {"measurement": "ka", "setting": "[1]; [5]", "result": "43.2 ± 111", "unit": "n = 7 1/h"},
      {"measurement": "α", "setting": "[1]; [5]", "result": "5.80 ± 6.64", "unit": "n = 7 1/h"},
      {"measurement": "β", "setting": "[1]; [5]", "result": "0.014 ± 0.019", "unit": "n = 7 1/h"},
      {"measurement": "increase of compartmental model apparent volume of distribution", "setting": "[1]; both, human, in vivo", "result": 4.6, "unit": "×"},
      {"measurement": "increase of mean non-compartmental apparent volume of distribution", "setting": "[1]; both, human, in vivo", "result": 15, "unit": "×"},
      {"measurement": "Tmax", "setting": "[1]; both, human, in vivo, Tmax", "result": "0.5 to 1", "unit": "h"},
      {"measurement": "half-life", "setting": "[1]; both, human, in vivo, average half-life across doses", "result": "46.5 ± 58.2", "unit": "h"},
      {"measurement": "Tmax", "setting": "[1]; both, human, in vivo, median Tmax", "result": 0.5, "unit": "h"},
      {"measurement": "Tmax", "setting": "[1]; both, human, in vivo, po, Tmax (Median)", "result": 0.5, "unit": "h"},
      {"measurement": "Tmax", "setting": "[1]; both, human, in vivo, po, Tmax (Range)", "result": "0.5 to 4", "unit": "h"},
      {"measurement": "Tmax", "setting": "[1]; both, human, in vivo, po, median Tmax", "result": 0.5, "unit": "h"},
      {"measurement": "half-life", "setting": "[1]; both, human, in vivo, po, α half-life", "result": "0.484 ± 0.187", "unit": "h"},
      {"measurement": "AUC0–48h, range of dose-group means", "setting": "[1]; human, in vivo", "result": "12.2 ± 14.5 to 88.5 ± 14.1"},
      {"measurement": "Cmax, range of dose-group means", "setting": "[1]; human, in vivo", "result": "2.51 ± 2.53 to 13.8 ± 9.52"},
      {"measurement": "Clearance", "setting": "[1]; human, in vivo, po", "result": 811, "unit": "n = 1 L/h"},
      {"measurement": "half-life", "setting": "[1]; human, in vivo, po, Half-life", "result": 4.31, "unit": "h"},
      {"measurement": "half-life", "setting": "[1]; human, in vivo, po, α half-life", "result": 1.89, "unit": "h"},
      {"measurement": "half-life", "setting": "[1]; human, in vivo, po, β half-life", "result": 1310, "unit": "h"},
      {"measurement": "Tmax", "setting": "[2]", "result": "0.75 to 1.0", "unit": "h"}
    ]},
    {"smiles": "Oc1ccc2ccc3c4ccccc4cc4ccc1c2c43", "note": "[3-OH, 3 - OH BaP]", "values": [
      {"measurement": "Tmax of metabolite", "setting": "[1]; [6]", "result": 1.0, "unit": "h"},
      {"measurement": "Tmax of metabolite", "setting": "[1]; [7]", "result": 1.25, "unit": "h"},
      {"measurement": "Tmax of metabolite", "setting": "[1]; [8]", "result": 1.0, "unit": "h"},
      {"measurement": "Tmax of metabolite", "setting": "[1]; [9]", "result": 1.5, "unit": "h"}
    ]},
    {"smiles": "Oc1ccc2cc3ccc4cccc5ccc(c2c1)c3c45", "note": "[9-OH, 9 - OH BaP]", "values": [
      {"measurement": "Tmax of metabolite", "setting": "[1]; [6]", "result": 0.5, "unit": "h"},
      {"measurement": "Tmax of metabolite", "setting": "[1]; [7]", "result": 1.0, "unit": "h"},
      {"measurement": "Tmax of metabolite", "setting": "[1]; [8]", "result": 1.0, "unit": "h"},
      {"measurement": "Tmax of metabolite", "setting": "[1]; [9]", "result": 0.75, "unit": "h"}
    ]}
  ]
}
